The values that follow come from patent US7906554B2, “Combination chemotherapy compositions and methods” (Novogen Research Pty Ltd, priority 2002, dated 2011).

A word on the IC50: it is the concentration needed to halve the response being measured.

Series [1] has as its system CP70. As to the kind of experiment: In vivo CP70 tumour injected subcutaneously into nude mice. As to conditions: cisplatin 0.5 mg/kg alone. The procedure: (§1) The in vitro studies were performed using ovarian cancer cells isolated from ascites using an immunomagnetic assay and established ovarian cancer cell lines CP70 and A2780. Cell viability was determined using CellTiter©. Apoptosis was evaluated using Hoechst 33342 dye. The in vivo effect was tested by injecting CP70 subcutaneously into nude mice. Animals received daily oral administration of dehydroequol, 10 or 20 mg/kg for 8 days alone or in combination with cisplatin 0.5 mg/kg. After 8 days the animals were sacrificed and the tumour volume was measured.

In the next series the test system is HPAC. Briefly: Cell viability (CellTiter), concurrent dehydroequol and cisplatin. The format is cell-based. The procedure: (§2) The effect of a composition comprising the platinum complex cisplatin and the isoflavonoid compound dehydroequol (compound No. 12) on various cancer cell lines was assessed on culture plates. Cell viability was determined using CellTiter©. Apoptosis was evaluated using Hoechst 33342 dye.

A further series has as its system A2780. The series is described as above. The format is cell-based. Here is the method: as §2
Series [2] has as its system CP70. The description is as above. The format is cell-based. Here is the method: as §2
The next series has as its system PC3. The description is as above. The format is cell-based. Here is the method:
as §2

In another series the test system is DU145. Described as above. The class given is cell-based. Here is the method: as §2
Series [3] concerns ovarian cancer cells isolated from ascites and ovarian cancer cell lines CP70 and A2780. Briefly: Cell viability (CellTiter) of ovarian cancer cells with or without dehydroequol pre-treatment. The class given is cell-based. Here is the method:
as §1

Series [4] has as its system carboplatin and paclitaxel resistant cells. Briefly: Decrease in cell viability in chemoresistant cells. The format is cell-based. Here is the method: as §1
Another series relates to caspase 3. As to the kind of experiment: Western blot analysis of resistant ovarian cancer cells. Particulars: chemoresistant cells, only after pre-treatment with dehydroequol (FIG. 5). The class given is cell-based. The text has this: FIG. 5 represents a Western Blot analysis of carboplatin or paclitaxel treatment resistant ovarian cancer CP70 cells with and without dehydroequol pre-treatment.
Additionally, the active form of caspase 3 in chemoresistant cells was not detected.

Series [5] concerns paclitaxel resistant cell line, R182. Briefly: Cell viability (CellTiter), paclitaxel resistant cell line. As to conditions: R182, no pre-treatment (FIG. 2). The format is cell-based. The procedure:
as §1

Where two headings read alike, the source gives them in different places. Some results are limits rather than exact numbers.

Take `N.N.[Cl][Pt][Cl]` [Cisplatin, cis-diamminedichloroplatinum (II)]: in the series on CP70 [1], the “effect on tumour size” value is given as “no effect”. Besides, the IC50 in the series with HPAC (co-incubation with 2 uM dehydroequol, read-out: Cisplatin IC50 +2 uM dehydroequol) is 7700 nM; with HPAC (single agent, read-out: IC50), 34500 nM; in the series with A2780 (A2780, co-incubation with 2 uM dehydroequol, read-out: Cisplatin IC50 +2 uM dehydroequol), less than 1 nM; in the series on A2780 (A2780, single agent, read-out: IC50), 3000 nM; with CP70 [2] (CP70, co-incubation with 2 uM dehydroequol, read-out: Cisplatin IC50 +2 uM dehydroequol), 100 nM; in the series on CP70 [2] (CP70, single agent, read-out: IC50), 10400 nM. Also, the 50% inhibitory concentration (IC50) is less than 1 nM in the series with PC3 (PC3, co-incubation with 2 uM dehydroequol, read-out: Cisplatin IC50 +2 uM dehydroequol); 400 nM in the series with PC3 (PC3, single agent, read-out: IC50); 100 nM in the series with DU145 (DU145, co-incubation with 2 uM dehydroequol, read-out: Cisplatin IC50 +2 uM dehydroequol); 5000 nM in the series on DU145 (DU145, single agent, read-out: IC50).
`N.N.O=C([O-])C1(C(=O)[O-])CCC1.[Pt+2]` [carboplatin]: in [3] (pre-treatment with dehydroequol (10 μg/ml) for two hours, +/−0.5 (FIG. 3)), the “IC50 for carboplatin after dehydroequol pre-treatment” value worked out at 0.5 µg/mL. The “decrease in cell viability” value in [4] (pre-treatment (2 h) with DHE followed by the agent for 48 h) is listed as 30%.
Consider `Oc1ccc(C2=Cc3ccc(O)cc3OC2)cc1` [dehydroequol], for which the “decrease in cell viability” value is on record as 20% in [4] (pre-treatment alone for 2 h) and 60-80% in series [4] (treatment for 48 hours). The IC50 stood at 50000 nM in the series on HPAC (Homo sapiens); 1700 nM in the series on A2780 (Homo sapiens, A2780); 1500 nM in the series on CP70 [2]; 9600 nM in the series with PC3 (Homo sapiens, PC-3); 5900 nM with DU145 (Homo sapiens, DU-145). Besides, the “Caspase 3 activation” value with caspase 3 is recorded as “Caspase 3 activation was observed”.
Turning to `CC(=O)O[C@H]1C(=O)[C@@]2(C)[C@H]([C@H](OC(=O)c3ccccc3)[C@]3(O)C[C@H](OC(=O)[C@H](O)[C@@H](NC(=O)c4ccccc4)c4ccccc4)C(C)=C1C3(C)C)[C@]1(OC(C)=O)CO[C@@H]1C[C@@H]2O` [paclitaxel], the IC50 in [3] (Homo sapiens, A2780, pre-treatment with dehydroequol (10 μg/ml) for two hours (FIG. 4), read-out: IC50 for paclitaxel after dehydroequol pre-treatment) was 50 nM; in series [5], greater than 2000 nM.
